Like-named read-outs stand apart in the source and are kept apart here.
What was measured:
KRAS G12V = KRAS G12V (Homo sapiens, UniProt P01116, G12V); experiment: GDP-GTP exchange assay (bodipy-GDP/GppNHp, SOS1), KRAS G12V; format: biochemical
Protocol: (§1) The inhibitor potency of the exemplified compounds was determined in a fluorescence based guanine nucleotide exchange assay, which measures the exchange of bodipy-GDP (fluorescently labeled GOP) for GppNHp (Non-hydrolyzable GTP analog) to generate the active state of KRAS in the presence of SOS1 (guanine nucleotide exchange factor). Inhibitors were serially diluted in DMSO and a volume of 0.1 μL was transferred to the wells of a black low volume 384-well plate. 5 μL/well volume of bodipy-loaded KRAS G12D diluted to 2.5 nM in assay buffer (25 mM Hepes pH 7.5, 50 mM NaCl, 10 mM MgCl2 and 0.01% Brij-35) was added to the plate and pre-incubated with inhibitor for 4 h at r.t. Appropriate controls (enzyme with no inhibitor or with a G12D inhibitor) were included on the plate. The exchange was initiated by the addition of a 5 μL/well volume containing 1 mM GppNHp and 300 nM SOS1 in assay buffer. The 10 μL/well reaction concentration of the bodipy-loaded KRAS G12D, GppNHp, and SOS1 were 2.5 nM, 500 μM, and 150 nM, respectively. The reaction plates were incubated at r.t. for 2 h, a time estimated for complete GDP-GTP exchange in the absence of inhibitor. For the KRAS G12V mutant, similar guanine nucleotide exchange assays were used with 2.5 nM as final concentration for the bodipy loaded KRAS proteins and 3 h incubation after adding GppNHp-SOS1 mixture. A cyclic peptide described to selectively bind G12D mutant (Sakamoto et al., BBRC 484.3 (2017), 605-611) or internal compounds with confirmed binding were used as positive controls in the assay plates. Fluorescence intensities were measured on a PheraStar plate reader instrument (BMG Labtech) with excitation at 485 nm and emission at 520 nm.
(§2) Either GraphPad prism or Genedata Screener SmartFit was used to analyze the data. The IC50 values were derived by fitting the data to a four parameter logistic equation producing a sigmoidal dose-response curve with a variable Hill coefficient.
(§3) The symbol “†” indicates IC50≤100 nM, “††” indicates IC50>100 nM but ≤1 μM; and “†††” indicates IC50 is >1 μM but ≤5 μM, “††††” indicates IC50 is >5 μM but ≤10 μM. “NA” indicates IC50 not available.

KRAS G12D = KRAS G12D (Homo sapiens, UniProt P01116, G12D); experiment: GDP-GTP exchange assay (bodipy-GDP/GppNHp, SOS1), KRAS G12D; format: biochemical
Protocol: as §1, §2, §3

[1] = KRAS G12V mutant, value for the most potent isomer quoted for certain compounds, read-out: G12V (KRAS G12V exchange assay IC50)
[2] = bodipy-loaded KRAS G12D 2.5 nM, 4 h pre-incubation, value for the most potent isomer quoted for certain compounds, read-out: G12D (KRAS G12D exchange assay IC50)
[3] = Table H, column G12V, for compounds isolated as several atropisomers/diastereoisomers the value for the most potent isomer is quoted, read-out: KRAS G12V exchange assay IC50
[4] = Table H, column G12D, for compounds isolated as several atropisomers/diastereoisomers the value for the most potent isomer is quoted, read-out: KRAS G12D exchange assay IC50

Chain of KRAS G12D (P01116 1-188 isoform P01116-2 G12D): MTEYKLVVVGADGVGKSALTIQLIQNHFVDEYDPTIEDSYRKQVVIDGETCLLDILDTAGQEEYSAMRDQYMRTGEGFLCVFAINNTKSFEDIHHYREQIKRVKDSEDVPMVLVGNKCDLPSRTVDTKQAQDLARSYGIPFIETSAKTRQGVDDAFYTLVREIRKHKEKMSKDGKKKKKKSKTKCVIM
Chain of KRAS G12V (P01116 1-188 isoform P01116-2 G12V): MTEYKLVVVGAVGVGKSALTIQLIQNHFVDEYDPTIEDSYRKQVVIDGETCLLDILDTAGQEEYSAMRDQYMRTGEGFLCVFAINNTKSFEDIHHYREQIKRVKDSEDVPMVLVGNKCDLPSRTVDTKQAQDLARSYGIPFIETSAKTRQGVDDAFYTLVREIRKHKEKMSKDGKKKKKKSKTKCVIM

Compound | IC50 (KRAS G12V; [1]) | IC50 (KRAS G12D; [2]) | IC50 (KRAS G12V; [3]) | IC50 (KRAS G12D; [4])
Cc1nc2c(F)c(-c3cccc(Cl)c3Cl)c(CCC#N)cc2c2c1cc([C@H]1C[C@H](n3nnc(-c4ccncc4)n3)CN1C(=O)C1CC1)n2[C@H]1[C@H]2CN[C@@H]1C2 (atropisomer, axis not shown) [Example 437] | ≤ 100 nM | ≤ 100 nM |  | 
Cc1nc2c(F)c(-c3cccc(Cl)c3Cl)c(CCC#N)cc2c2c1cc([C@H]1C[C@H](OCC3CCOCC3)CN1C(=O)C1CC1)n2[C@H]1[C@H]2CN[C@@H]1C2 [Example 29] |  |  | ≤ 100 nM | ≤ 100 nM
Cc1nc2c(F)c(-c3cccc(Cl)c3Cl)c(CCC#N)cc2c2c1cc([C@H]1C[C@H](O[C@@H]3CCOC3)CN1C(=O)C1CC1)n2[C@H]1[C@H]2CN[C@@H]1C2 [Example 30] |  |  | ≤ 100 nM | ≤ 100 nM
Cc1nc2c(F)c(-c3cccc(Cl)c3Cl)c(CCC#N)cc2c2c1cc([C@H]1C[C@H](Oc3ccc(N4CCOCC4)nc3)CN1C(=O)C1CC1)n2[C@H]1[C@H]2CN[C@@H]1C2 [Example 36, 3-(1-((1R,4R,5S)-2-Azabicyclo[2.1.1]hexan-5-yl)-2-((2R,4S)-1-(cyclopropanecarbonyl)-4-((6-morpholinopyridin-3-yl)oxy)pyrrolidin-2-yl)-7-(2,3-dichlorophenyl)-6-fluoro-4-methyl-1H-pyrrolo[3,2-c]quinolin-8-yl)propanenitrile] |  |  | ≤ 100 nM | ≤ 100 nM
Cc1nc2c(F)c(-c3cccc(Cl)c3Cl)c(CCC#N)cc2c2c1cc([C@H]1C[C@H](Oc3ccc(=O)n(C)c3)CN1C(=O)C1CC1)n2[C@H]1[C@H]2CN[C@@H]1C2 [Example 50] |  |  | ≤ 100 nM | ≤ 100 nM
Cc1nc2c(F)c(-c3cccc(Cl)c3Cl)c(CCC#N)cc2c2c1cc([C@H]1C[C@H](n3cc(C4(C)CCCCC4)nn3)CN1C(=O)C1CC1)n2[C@H]1[C@H]2CN[C@@H]1C2 [Example 66, 3-(1-((1R,4R,5S)-2-Azabicyclo[2.1.1]hexan-5-yl)-2-((2R,4S)-1-(cyclopropanecarbonyl)-4-(4-(1-methylcyclohexyl)-1H-1,2,3-triazol-1-yl)pyrrolidin-2-yl)-7-(2,3-dichlorophenyl)-6-fluoro-4-methyl-1H-pyrrolo[3,2-c]quinolin-8-yl)propanenitrile] |  |  | ≤ 100 nM | ≤ 100 nM
COc1ncnc2c1ccn2[C@H]1C[C@H](c2cc3c(C)nc4c(F)c(-c5cccc(Cl)c5Cl)c(CCC#N)cc4c3n2[C@H]2[C@H]3CN[C@@H]2C3)N(C(=O)C2CC2)C1 [Example 73, 3-(1-((1R,4R,5S)-2-Azabicyclo[2.1.1]hexan-5-yl)-2-((2R,4S)-1-(cyclopropanecarbonyl)-4-(4-methoxy-7H-pyrrolo[2,3-d]pyrimidin-7-yl)pyrrolidin-2-yl)-7-(2,3-dichlorophenyl)-6-fluoro-4-methyl-1H-pyrrolo[3,2-c]quinolin-8-yl)propanenitrile] |  |  | ≤ 100 nM | ≤ 100 nM
Cc1nc2c(F)c(-c3cccc(Cl)c3Cl)c(CCC#N)cc2c2c1cc([C@H]1C[C@H](OC(F)(F)c3ccccc3)CN1C(=O)C1CC1)n2[C@H]1[C@H]2CN[C@@H]1C2 [Example 79, 3-(1-((1R,4R,5S)-2-Azabicyclo[2.1.1]hexan-5-yl)-2-((2R,4S)-1-(cyclopropanecarbonyl)-4-(difluoro(phenyl)methoxy)pyrrolidin-2-yl)-7-(2,3-dichlorophenyl)-6-fluoro-4-methyl-1H-pyrrolo[3,2-c]quinolin-8-yl)propanenitrile] |  |  | ≤ 100 nM | ≤ 100 nM
C[C@@H](O)c1nc2c(F)c(-c3cccc(Cl)c3Cl)c(CCC#N)cc2c2c1cc([C@H]1[C@@H](F)[C@H](Oc3ccccn3)CN1C(=O)C1CC1)n2[C@H]1[C@H]2CN[C@@H]1C2 [Example 85] | ≤ 100 nM | ≤ 100 nM |  | 
Cc1nc2c(F)c(-c3cccc(Cl)c3Cl)c(CCC#N)cc2c2c1cc([C@H]1C[C@H](OCC3CCCCC3)CN1C(=O)C1CC1)n2[C@H]1[C@H]2CN[C@@H]1C2 [Example 86] | ≤ 100 nM | ≤ 100 nM |  | 
Cc1nc2c(F)c(-c3cccc(Cl)c3Cl)c(CCC#N)cc2c2c1cc([C@H]1C[C@H](OC(=O)c3ccccc3)CN1C(=O)C1CC1)n2[C@H]1[C@H]2CN[C@@H]1C2 [Example 270] |  | ≤ 100 nM |  | 

Source: patent US20240390340A1 (INCYTE CORPORATION, priority 2023, published 2024)
